Laboratory results as given in DBAASP.
In brackets after ≈: the same amount, converted by molar mass. Values belong to the molecule of their own block, whether it stands above or below them.

Experiments:
Assay in all cases: ≥ marks a high value that may be exact or a test limit, other limits are often not marked, values filed in µg/mL are converted to µM
[1] = test system: Staphylococcus aureus ATCC 700699
[2] = test system: Escherichia coli ATCC 25922
[3] = test system: Staphylococcus aureus ATCC 33591
[4] = test system: Staphylococcus aureus ATCC 29213
[5] = test system: Klebsiella pneumoniae ATCC 700603
[6] = test system: Pseudomonas aeruginosa ATCC 27853
[7] = test system: Psychrobacter faecalis X29
[8] = test system: Enterococcus faecalis 981
[9] = test system: Nocardia asteroides 201118
[10] = test system: Candida glabrata 090902
[11] = test system: Staphylococcus aureus ATCC 25923
[12] = test system: Pseudomonas aeruginosa PAO1
[13] = test system: Candida albicans ATCC 64550
[14] = test system: Staphylococcus aureus RN4220
[15] = test system: Cronobacter muytjensii ATCC 51329
[16] = test system: Cronobacter sakazakii DPC 6440
[17] = test system: Salmonella enterica subsp. enterica serovar Typhimurium LT2
[18] = test system: Klebsiella pneumoniae NCIMB 13218
[19] = test system: Escherichia coli NCIMB 11843
[20] = test system: Staphylococcus aureus Newman
[21] = test system: Staphylococcus aureus NCTC 8325-4
[22] = test system: Cronobacter sakazakii ATCC BAA-894
[23] = test system: Staphylococcus aureus RF122
[24] = test system: Cronobacter sakazakii DSM 4485
[25] = test system: Pseudomonas fluorescens NCIMB 9046
[26] = test system: Staphylococcus aureus SA113
[27] = test system: Bacillus subtilis ATCC 23857
[28] = test system: Micrococcus luteus CCM 144
[29] = test system: Candida albicans F7-39/IDE99
[30] = test system: Staphylococcus epidermidis
[31] = test system: Staphylococcus aureus 1
[32] = test system: Staphylococcus aureus
[33] = test system: Escherichia coli B
[34] = test system: Pseudomonas aeruginosa
[35] = test system: Staphylococcus aureus ATCC 43300
[36] = test system: Bacillus subtilis 168
[37] = test system: Bacillus cereus ATCC 11778
[38] = test system: Escherichia coli ATCC 35218
[39] = test system: Pseudomonas aeruginosa ATCC 9027

- MIC [1]: ≥ 100 µM
- MIC [2]: > 100 µM
- MIC [3]: ≥ 100 µM
- MIC [4]: > 100 µM
- MIC [5]: 100 µM (≈ 252 µg/mL)
- MIC [6]: > 100 µM
Compound: CC[C@H](C)[C@H](NC(=O)[C@H](CC(=O)O)NC(=O)[C@H](CCCCN)NC(=O)[C@H](C)NC(=O)[C@H](C)NC(=O)CNC(=O)[C@H](CCCCN)NC(=O)[C@H](CC(C)C)NC(=O)[C@@H](NC(=O)[C@H](CC(=O)O)NC(=O)[C@H](C)NC(=O)[C@@H](NC(=O)CN)C(C)C)[C@@H](C)CC)C(=O)N[C@@H](C)C(=O)NCC(=O)N[C@@H](Cc1cnc[nH]1)C(=O)N[C@@H](CC(C)C)C(=O)N[C@@H](C)C(=O)N[C@@H](CO)C(=O)N[C@@H](CCCCN)C(=O)N[C@H](C(=O)N[C@@H](CCSC)C(=O)N[C@@H](CC(N)=O)C(=O)N[C@@H](CCCCN)C(=O)N[C@@H](CC(C)C)C(N)=O)C(C)C [GVADILKGAAKDIAGHLASKVMNKL]

- MIC [7]: ≥ 50 µM
- MIC [8]: ≥ 50 µM
- MIC [9]: 25 µM (≈ 50.1 µg/mL)
- MIC [10]: 25 µM (≈ 50.1 µg/mL)
- MIC [11]: 100 µM (≈ 200 µg/mL)
Compound: CC[C@H](C)[C@@H]1NC(=O)[C@H](CCC(=O)O)NC(=O)[C@@H](NC(=O)[C@@H](NC(=O)[C@@H](NC(=O)[C@H](CCCCN)NC(=O)[C@@H]2CCCN2C(=O)[C@H](CC(C)C)NC(=O)[C@H](Cc2ccccc2)NC(=O)[C@H](CC(C)C)NC(=O)[C@@H]2CCCN2C(=O)[C@H](CC(C)C)NC(=O)[C@@H](N)Cc2ccccc2)[C@@H](C)CC)[C@@H](C)CC)CSSC[C@@H](C(=O)O)NC(=O)[C@H](CCCCN)NC(=O)[C@H](CCCCN)NC(=O)[C@H]([C@@H](C)O)NC1=O [FLPLFLPKIICEITKKC]

- MIC [12]: 10.2 µM (≈ 9.99 µg/mL)
- MIC [13]: 25 µM (≈ 24.5 µg/mL)
Compound: CC[C@H](C)[C@H](NC(=O)[C@H](CCCN=C(N)N)NC(=O)[C@H](CC(C)C)NC(=O)[C@H](CCCN=C(N)N)NC(=O)[C@@H](N)C(C)C)C(=O)N[C@@H](CCCN=C(N)N)C(=O)N[C@H](C(=O)N[C@@H](C)C(N)=O)C(C)C [VRLRIRVA]

- MIC [14]: ≥ 2500 µM
- MIC [15]: ≥ 2500 µM
- MIC [16]: ≥ 2500 µM
- MIC [17]: ≥ 2500 µM
- MIC [18]: ≥ 2500 µM
- MIC [19]: ≥ 2500 µM
- MIC [20]: ≥ 2500 µM
- MIC [21]: ≥ 2500 µM
- MIC [22]: ≥ 2500 µM
- MIC [23]: ≥ 2500 µM
- MIC [24]: ≥ 2500 µM
- MIC [25]: ≥ 2500 µM
- MIC [26]: ≥ 2500 µM
Compound: CC[C@H](C)[C@H](N)C(=O)N[C@@H](CCCCN)C(=O)N[C@@H](CCC(N)=O)C(=O)NCC(=O)N[C@@H](CC(C)C)C(=O)N1CCC[C@H]1C(=O)N[C@@H](CCC(N)=O)C(=O)N[C@@H](CCC(=O)O)C(=O)O [IKQGLPQE]

- MIC [1]: ≥ 100 µM
- MIC [2]: 100 µM (≈ 248 µg/mL)
- MIC [3]: ≥ 100 µM
- MIC [4]: > 100 µM
- MIC [5]: 100 µM (≈ 248 µg/mL)
- MIC [6]: > 100 µM
Compound: CC[C@H](C)[C@H](NC(=O)[C@H](CC(=O)O)NC(=O)[C@H](CCCCN)NC(=O)[C@H](C)NC(=O)[C@H](C)NC(=O)CNC(=O)[C@H](CCCCN)NC(=O)[C@H](CC(C)C)NC(=O)[C@@H](NC(=O)[C@H](CC(=O)O)NC(=O)[C@@H](NC(=O)[C@@H](NC(=O)CN)C(C)C)C(C)C)[C@@H](C)CC)C(=O)N[C@@H](C)C(=O)NCC(=O)N[C@@H](C)C(=O)N[C@@H](CC(C)C)C(=O)N[C@@H](C)C(=O)N[C@@H](CO)C(=O)N[C@@H](CCCCN)C(=O)N[C@H](C(=O)N[C@@H](CCSC)C(=O)N[C@@H](CC(N)=O)C(=O)N[C@@H](CCCCN)C(=O)N[C@@H](CC(C)C)C(N)=O)C(C)C [GVVDILKGAAKDIAGALASKVMNKL]

- MIC [27]: 8 µM (≈ 10.8 µg/mL)
- MIC [2]: 16 µM (≈ 21.7 µg/mL)
- MIC [11]: 16 µM (≈ 21.7 µg/mL)
- MIC [13]: 12.5 µM (≈ 16.9 µg/mL)
- MIC [6]: 8 µM (≈ 10.8 µg/mL)
Compound: CC(C)C[C@H](NC(=O)[C@H](CC(C)C)NC(=O)[C@H](CCCCN)NC(=O)[C@H](CCCCN)NC(=O)[C@H](Cc1c[nH]c2ccccc12)NC(=O)[C@H](Cc1c[nH]c2ccccc12)NC(=O)[C@H](CCCCN)NC(=O)[C@H](CC(C)C)NC(=O)[C@H](CC(C)C)NC(=O)[C@@H](N)CCCCN)C(N)=O [KLLKWWKKLL]

- MIC [28]: 3 µM (≈ 5.54 µg/mL)
- MIC [29]: 6.3 µM (≈ 11.6 µg/mL)
- MIC [30]: 1.7 µM (≈ 3.14 µg/mL)
- MIC [31]: 18 µM (≈ 33.2 µg/mL)
- MIC [32]: 65 µM (≈ 120 µg/mL)
- MIC [33]: 22 µM (≈ 40.6 µg/mL)
- MIC [34]: 9.9 µM (≈ 18.3 µg/mL)
- MIC [35]: 54 µM (≈ 99.7 µg/mL)
- MIC [36]: 7 µM (≈ 12.9 µg/mL)
- MIC [6]: 7.1 µM (≈ 13.1 µg/mL)
Compound: CC[C@H](C)[C@H](NC(=O)CN)C(=O)N[C@@H](CCSC)C(=O)N[C@@H](CO)C(=O)N[C@@H](CO)C(=O)N[C@@H](CC(C)C)C(=O)N[C@@H](CCSC)C(=O)N[C@@H](CCCCN)C(=O)N[C@@H](CCCCN)C(=O)N[C@@H](CC(C)C)C(=O)N[C@@H](CCCCN)C(=O)N[C@@H](CCCCN)C(=O)N[C@H](C(=O)N[C@H](C(=O)N[C@@H](CCCCN)C(=O)N[C@@H](CCCCN)C(N)=O)[C@@H](C)CC)[C@@H](C)CC [GIMSSLMKKLKKIIKK]

- MIC [37]: ≥ 50 µM
- MIC [38]: ≥ 50 µM
- MIC [39]: > 50 µM
- MIC [11]: > 50 µM
Compound: CC(C)C[C@H](NC(=O)[C@@H](NC(=O)[C@@H](N)CCCCN)C(C)C)C(=O)N[C@@H](CCCCN)C(=O)N[C@@H](C)C(=O)N[C@@H](C)C(=O)N[C@@H](C)C(N)=O [KVLKAAA]

- MIC [28]: 3 µM (≈ 5.38 µg/mL)
- MIC [29]: 24 µM (≈ 43 µg/mL)
- MIC [30]: 2.2 µM (≈ 3.95 µg/mL)
- MIC [31]: 4.3 µM (≈ 7.71 µg/mL)
- MIC [32]: 10 µM (≈ 17.9 µg/mL)
- MIC [33]: 10 µM (≈ 17.9 µg/mL)
- MIC [34]: 8.9 µM (≈ 16 µg/mL)
- MIC [35]: 17 µM (≈ 30.5 µg/mL)
- MIC [36]: 7 µM (≈ 12.6 µg/mL)
- MIC [6]: 5 µM (≈ 8.97 µg/mL)
Compound: CC[C@H](C)[C@H](NC(=O)CN)C(=O)N[C@@H](CC(C)C)C(=O)N[C@@H](CCCCN)C(=O)N[C@@H](CO)C(=O)N[C@@H](CC(C)C)C(=O)N[C@@H](CC(C)C)C(=O)N[C@@H](CCCCN)C(=O)N[C@@H](CCCCN)C(=O)N[C@@H](CC(C)C)C(=O)N[C@@H](CCCCN)C(=O)N[C@@H](CCCCN)C(=O)N[C@H](C(=O)N[C@H](C(=O)N[C@@H](C)C(=O)N[C@@H](CCCCN)C(N)=O)[C@@H](C)CC)[C@@H](C)CC [GILKSLLKKLKKIIAK]

- MIC [14]: ≥ 312 µM
- MIC [15]: ≥ 2500 µM
- MIC [16]: ≥ 1250 µM
- MIC [17]: ≥ 2500 µM
- MIC [18]: ≥ 2500 µM
- MIC [19]: ≥ 2500 µM
- MIC [20]: ≥ 1250 µM
- MIC [21]: ≥ 2500 µM
- MIC [22]: ≥ 1250 µM
- MIC [23]: ≥ 156 µM
- MIC [24]: ≥ 312 µM
- MIC [25]: ≥ 2500 µM
- MIC [6]: 64 µM (≈ 53.9 µg/mL)
- MIC [26]: ≥ 1250 µM
Compound: CC(C)C[C@H](NC(=O)[C@H](CC(N)=O)NC(=O)[C@H](CCC(=O)O)NC(=O)[C@H](CC(N)=O)NC(=O)[C@H](CC(C)C)NC(=O)[C@@H](N)C(C)C)C(=O)N[C@@H](C)C(=O)N[C@@H](C)C(=O)O [VLNENLAA]
